Columns and labels:
[1] = cited from earlier work
[2] = Pro-liposome gel formulation work: effect of ethanol and drug concentration on drug solubility, gel formation and gel appearance on storage; assay type: physicochemical
Procedure: Approximately 10% of the total lipid and all the ethanol were weighed into an amber glass jar and mixed until all the lipid had dispersed. The antifungal drug was added to the lipid/ethanol mixture and further mixing was carried out to break up the drug particles. The remainder of the lipid was added and mixing was continued until all the lipid had been dispersed. The glycerol was then added and stirring was continued until a homogenous gel was obtained. It was clear and translucent with a sweet pleasant taste and could be applied directly to the mucosa. From about 1% to 10% or more, but preferably about 2% to 5% of a hydrophilic polymer or natural gum can be dispersed in powder form to render the preparation muco-adhesive. Compositions utilising lipid blends or lecithins which contain 45% PC, form liposomes on conversion with water. The drug is associated with the liposomes at very high levels, ie greater than 90%.
The preparation of the pro-liposome miconazole and clotrimazole gel was as described above. Early formulation work was carried out to find: • i) A gel formulation with enough ethanol to dissolve the miconazole and clotrimazole giving the gel a translucent appearance, but with […] as to obtain an optimum viscosity profile (Table 1). • ii) A gel formulation with not too much miconazole or clotrimazole to induce crystallisation of the drug in the gel (Table 2).
At this level of ethanol, miconazole drug crystallisation was not seen in 1% and 2.5% miconazole gals.

[3] = % encapsulation of drug into liposomes from pro-liposome gels (filtration through 200 nm filters, HPLC); assay type: physicochemical; conditions: Example 3 gel (90% PC, Tris base); average particle size of 1-5µ
Procedure: The % encapsulation of the antifungal drugs miconazole and clotrimazole was determined by filtration of the liposome dispersion and by HPLC analysis of the unfiltered and filtered solutions for drug content. The principle behind the filtration technique is that the liposomes (with encapsulated antifungal). can be passed through 200 nm filters, while unencapsulated drug particles remain too large to pass through the filters. Pro-liposome gels were prepared, containing 2.5% and 1% miconazole and 1% and 0.5% clotrimazole. […] The % encapsulation of drug would be expected to decrease if crystallisation occurred in the gels with time.
Using the method of Example 1, pro-liposome gels were made with various concentrations of amphotericin B. The % encapsulation of the amphotericin B into liposomes (in 0.1% suspensions of the gel formulations) was measured at 3 days, 1 month, 3 months and 6 months after pro-liposome preparation. The gels were stored at 4°C ;in sealed containers, protected from light (Table 4). […]

[4] = Table 1, ethanol 5 %, 45% PC lipid 20 %, drug 1 %, glycerol 74 %
[5] = Table 2, ethanol 5 %, 45%PC 20 %, drug 1 %, glycerol 74 %
[6] = Table 2, ethanol 5 %, 45%PC 20 %, glycerol 72.5 %, drug 2.5 % (clotrimazole line prints 1)
[7] = ethanol 2.5 %, 45% PC lipid 20 %, drug 1 %, glycerol 76.5 %
[8] = ethanol 10 %, 45% PC lipid 20 %, drug 1 %, glycerol 69 %
[9] = ethanol 15 %, 45% PC lipid 20 %, drug 1 %, glycerol 64 %

Compound	solubility in ethanol [1]	solubility in water [1]	Initial Comments: drug solubility in ethanol + 10% of lipid [2, 4]	Initial Comments: drug solubility in ethanol + 10% of lipid [2, 5]	Initial Comments: drug solubility in ethanol + 10% of lipid [2, 6]	Initial Comments: drug solubility in ethanol + 10% of lipid [2, 7]	Initial Comments: drug solubility in ethanol + 10% of lipid [2, 8]	Initial Comments: drug solubility in ethanol + 10% of lipid [2, 9]	encapsulation into liposomes formed from the pro-liposome by addition of water [3] [%]
Clc1ccccc1C(c1ccccc1)(c1ccccc1)n1ccnc1 [Clotrimazole, 1-(o-chloro-a,a-diphenylbenzyl)imidazole]	soluble	insoluble	Clotrimazole soluble in ethanol + 10% of lipid. Clear, golden gel formed with good viscosity	Clotrimazole soluble in ethanol + 10% of lipid. Clear, golden gel formed with good viscosity	Clotrimazole soluble in ethanol + 10% of lipid. Clear, golden gel formed with good viscosity	Clotrimazole insoluble in ethanol + 10% of lipid. Not enough ethanol to disperse all the lipid and form a gel	Clotrimazole soluble in ethanol + 10% of lipid. Clear, golden gel formed with runny viscosity	Clotrimazole soluble in ethanol + 10% of lipid. Clear, golden gel formed with very runny viscosity	–
C[C@@H]1[C@H](O)[C@@H](C)/C=C/C=C/C=C/C=C/C=C/C=C/C=C/[C@H](O[C@@H]2O[C@H](C)[C@@H](O)[C@H](N)[C@@H]2O)C[C@@H]2O[C@](O)(C[C@@H](O)C[C@@H](O)[C@H](O)CC[C@@H](O)C[C@@H](O)CC(=O)O[C@H]1C)C[C@H](O)[C@H]2C(=O)O [Amphotericin B, amphotericin B]	–	–	–	–	–	–	–	–	~100
Clc1ccc(COC(Cn2ccnc2)c2ccc(Cl)cc2Cl)c(Cl)c1 (stereo not drawn) [Miconazole, 1-[2-dichloro-β-[2,4-dichlorobenzyl)oxyphenethyl]imidazole mononitrate]	very soluble	very slightly soluble	Miconazole soluble in ethanol + 10% of lipid. Clear, golden gel formed with good viscosity	Miconazole soluble in ethanol + 10% of lipid. Clear, golden gel formed with good viscosity	Miconazole soluble in ethanol + 10% of lipid. Clear, golden gel formed with good viscosity	Miconazole soluble in ethanol + 10% of lipid. Not enough ethanol to disperse all the lipid and form a gel	Miconazole soluble in ethanol + 10% of lipid. Clear, golden gel formed with runny viscosity	Miconazole soluble in ethanol + 10% of lipid. Clear, golden gel formed with very runny viscosity	–
